Reference: US20250195521A1 (Revolution Medicines, Inc., priority 2020, published 2025)
Like-named read-outs stand apart in the source and are kept apart here.

Assays:
[1] = system: AsPC-1 (K-Ras G12D); assay: CellTiter-Glo cell viability assay, AsPC-1; type: cell-based, human; details: Homo sapiens, ASPC1, 120 h, read-out: AsPC-1 Cell Viability IC50
Method: Note—The following protocol describes a procedure for monitoring cell viability of K-Ras mutant cancer cell lines in response to a compound of the invention. Other RAS isoforms may be employed, though the number of cells to be seeded will vary based on cell line used.
Test compounds (132.5 nL) were directly dispensed into the assay plates containing cells. […] On day 5, assay plates and their contents were equilibrated to room temperature for approximately 30 minutes. […] Luminescence was measured using the PerkinElmer Enspire. Data were normalized by the following: (Sample signal/Avg. DMSO)*100. The data were fit using a four-parameter logistic fit.

[2] = system: AsPC-1 (K-Ras G12D); assay: Potency assay: pERK; type: cell-based, human; details: Homo sapiens, ASPC1, read-out: pERK EC50
Method: The purpose of this assay is to measure the ability of test compounds to inhibit K-Ras in cells. […] This procedure measures a decrease in cellular pERK in response to test compounds. The procedure described below in NCI-H358 cells is applicable to K-Ras G12C.
NCI-H358 cells were grown and maintained using media and procedures recommended by the ATCC. On the day prior to compound addition, cells were plated in 384-well cell culture plates (40 μl/well) and grown overnight in a 37° C., 5% CO2 incubator. Test compounds were prepared in 10, 3-fold dilutions in DMSO, with a high concentration of 10 mM. On the day of assay, 40 nL of test compound was added to each well of cell culture plate using an Echo550 liquid handler (LabCyte®). Concentrations of test compound were tested in duplicate. After compound addition, cells were incubated 4 hours at 37° C., 5% CO2. Following incubation, culture medium was removed and cells were washed once with phosphate buffered saline.
In some experiments, cellular pERK level was determined using the AlphaLISA SureFire Ultra p-ERK1/2 Assay Kit (PerkinElmer). Cells were lysed in 25 μL lysis buffer, with shaking at 600 RPM at room temperature. Lysate (10 μL) was transferred to a 384-well Opti-plate (PerkinElmer) and 5 μL acceptor mix was added. After a 2-hour incubation in the dark, 5 μL donor mix was added, plate was sealed, and incubated 2 hours at room temperature. Signal was read on an Envision plate reader (PerkinElmer) using standard AlphaLISA settings. Analysis of raw data was carried out in Excel (Microsoft) and Prism (GraphPad). Signal was plotted vs. the decadal logarithm of compound concentration, and IC50 was determined by fitting a 4-parameter sigmoidal concentration response model.
In other experiments, cellular pERK was determined by In-Cell Western. Following compound treatment, cells were washed twice with 200 μL tris buffered saline (TBS) and fixed for 15 minutes with 150 μL 4% paraformaldehyde in TBS. Fixed cells were washed 4 times for 5 minutes with TBS containing 0.1% Triton X-100 (TBST) and then blocked with 100 μL Odyssey blocking buffer (LI-COR) for 60 minutes at room temperature. Primary antibody (PERK, CST-4370, Cell Signaling Technology) was diluted 1:200 in blocking buffer, and 50 μL was added to each well and incubated overnight at 4° C. Cells were washed 4 times for 5 minutes with TBST. Secondary antibody (IR-800CW rabbit, LI-COR, diluted 1:800) and DNA stain DRAQ5 (LI-COR, diluted 1:2000) were added and incubated 1-2 hours at room temperature. Cells were washed 4 times for 5 minutes with TBST. Plates were scanned on a Li—COR Odyssey CLx Imager. Analysis of raw data was carried out in Excel (Microsoft) and Prism (GraphPad). Signal was plotted vs. the decadal logarithm of compound concentration, and IC50 was determined by fitting a 4-parameter sigmoidal concentration response model.

Structure (SMILES) | IC50 ([1]; K-Ras G12D, 5-day treatment) | EC50 [2] | IC50 [1]
CCn1c(-c2cccnc2[C@H](C)OC)c2c3cc(ccc31)-c1cc(O)cc(c1)C[C@H](NC(=O)[C@H](C(C)C)N(C)C(=O)N1CCN(C(=O)[C@H]3CN3)C(=O)C1)C(=O)N1CCC[C@H](N1)C(=O)OCC(C)(C)C2 [Example 143] | > 10 µM |  | 
CCn1c(-c2cccnc2[C@H](C)OC)c2c3cc(ccc31)-c1cc(O)cc(c1)C[C@H](NC(=O)[C@H](C(C)C)N(C)C(=O)CNC(=O)[C@@H]1CN1)C(=O)N1CCC[C@H](N1)C(=O)OCC(C)(C)C2 [Example 147] |  | < 5 µM | 1 to 10 µM
CCn1c(-c2cccnc2[C@H](C)OC)c2c3cc(ccc31)-c1cc(O)cc(c1)C[C@H](NC(=O)[C@H](C(C)C)N(C)C(=O)[C@H]1CCCN1C(=O)[C@@H]1CN1)C(=O)N1CCC[C@H](N1)C(=O)OCC(C)(C)C2 [Example 151] |  | < 5 µM | 1 to 10 µM
CCn1c(-c2cccnc2[C@H](C)OC)c2c3cc(ccc31)-c1cc(O)cc(c1)C[C@H](NC(=O)[C@H](C(C)C)N(C)C(=O)[C@H]1CCCN1C(=O)[C@H]1CN1)C(=O)N1CCC[C@H](N1)C(=O)OCC(C)(C)C2 [Example 152] |  | < 5 µM | 1 to 10 µM
CCn1c(-c2cccnc2[C@H](C)OC)c2c3cc(ccc31)-c1cc(O)cc(c1)C[C@H](NC(=O)[C@H](C(C)C)N(C)C(=O)[C@H]1CC[C@@H](C)N1C(=O)[C@@H]1CN1)C(=O)N1CCC[C@H](N1)C(=O)OCC(C)(C)C2 [Example 153] |  | < 5 µM | 1 to 10 µM
CCn1c(-c2cccnc2[C@H](C)OC)c2c3cc(ccc31)-c1cc(O)cc(c1)C[C@H](NC(=O)[C@H](C(C)C)N(C)C(=O)[C@H]1CC[C@@H](C)N1C(=O)[C@H]1CN1)C(=O)N1CCC[C@H](N1)C(=O)OCC(C)(C)C2 [Example 154] |  | < 5 µM | 1 to 10 µM
